Measurements: US7932050B2, “Enzymatic substrates derived from phenoxazinone and their use as developers in detection of microorganisms with peptidase activity” (bioMerieux, priority 2004, dated 2011)

Columns and labels:
Format in all cases: cell-based
[1] = test system: Streptococcus pyogenes NCTC 8306; test: Detection of L-alanine peptidase activity on Columbia agar containing the substrate; parameters: key to G [head as printed; cells hold colony color]: I signifies colorless; key to C [head as printed; cells hold growth signs]: the sign ++ signifies very good growth; the sign + signifies good growth of the strain; the sign +/− signifies average growth of the strain; the sign − signifies absence of growth of the strain; conditions: substrate 50 mg/l in Columbia agar; 24 to 48 h at 37° C.
[2] = test system: Proteus mirabilis NCTC 10975; test: as above; parameters: key to C [head as printed; cells hold growth signs]: the sign ++ signifies very good growth; the sign + signifies good growth of the strain; the sign +/− signifies average growth of the strain; the sign − signifies absence of growth of the strain; conditions: substrate 50 mg/l in Columbia agar; 24 to 48 h at 37° C.
[3] = test system: Staphylococcus aureus NCTC 6571; test: as above; parameters: key to G [head as printed; cells hold colony color]: I signifies colorless; key to C [head as printed; cells hold growth signs]: the sign ++ signifies very good growth; the sign + signifies good growth of the strain; the sign +/− signifies average growth of the strain; the sign − signifies absence of growth of the strain; conditions: substrate 50 mg/l in Columbia agar; 24 to 48 h at 37° C.
[4] = test system: Escherichia coli NCTC 10418; test: as above; parameters: key to C [head as printed; cells hold growth signs]: the sign ++ signifies very good growth; the sign + signifies good growth of the strain; the sign +/− signifies average growth of the strain; the sign − signifies absence of growth of the strain; conditions: substrate 50 mg/l in Columbia agar; 24 to 48 h at 37° C.
[5] = test system: Providencia rettgeri NCTC 7475; test: as above; parameters: key to C [head as printed; cells hold growth signs]: the sign ++ signifies very good growth; the sign + signifies good growth of the strain; the sign +/− signifies average growth of the strain; the sign − signifies absence of growth of the strain; conditions: substrate 50 mg/l in Columbia agar; 24 to 48 h at 37° C.
[6] = test system: Klebsiella pneumoniae NCTC 10896; test: as above; parameters: key to C [head as printed; cells hold growth signs]: the sign ++ signifies very good growth; the sign + signifies good growth of the strain; the sign +/− signifies average growth of the strain; the sign − signifies absence of growth of the strain; conditions: substrate 50 mg/l in Columbia agar; 24 to 48 h at 37° C.
[7] = test system: Pseudomonas aeruginosa NCTC 10662; test: as above; parameters: key to C [head as printed; cells hold growth signs]: the sign ++ signifies very good growth; the sign + signifies good growth of the strain; the sign +/− signifies average growth of the strain; the sign − signifies absence of growth of the strain; conditions: substrate 50 mg/l in Columbia agar; 24 to 48 h at 37° C.
Salmonella hadar = test: as above; parameters: key to C [head as printed; cells hold growth signs]: the sign ++ signifies very good growth; the sign + signifies good growth of the strain; the sign +/− signifies average growth of the strain; the sign − signifies absence of growth of the strain; conditions: substrate 50 mg/l in Columbia agar; 24 to 48 h at 37° C.
[8] = test system: Listeria monocytogenes NCTC 11994; test: as above; parameters: key to G [head as printed; cells hold colony color]: I signifies colorless; key to C [head as printed; cells hold growth signs]: the sign ++ signifies very good growth; the sign + signifies good growth of the strain; the sign +/− signifies average growth of the strain; the sign − signifies absence of growth of the strain; conditions: substrate 50 mg/l in Columbia agar; 24 to 48 h at 37° C.
[9] = test system: Acinetobacter calcoaceticus; test: Detection of β-alanine peptidase activity (example 9), colony coloration; conditions: between 24 and 48 h of incubation
Pseudomonas aeruginosa [10] = test: as above; conditions: between 24 and 48 h of incubation, no accession No.
[11] = test system: Acinetobacter baumannii ATCC 19606; test: as above; conditions: between 24 and 48 h of incubation; strain ATCC 19606
[12] = test system: Burkholderia cepacia GI LMG1222; test: as above; conditions: between 24 and 48 h of incubation; strain LMG1222
[13] = test system: Burkholderia cepacia GIII LMG 18832; test: as above; conditions: between 24 and 48 h of incubation; strain LMG 18832
[14] = test system: Pseudomonas fragilis NCIMB 8987; test: as above; conditions: between 24 and 48 h of incubation; strain NCIMB 8987
Pseudomonas maltophilia = test: as above; conditions: between 24 and 48 h of incubation
Ralstonia basilensis = conditions: between 24 and 48 h of incubation
Ralstonia taiwanensis = conditions: between 24 and 48 h of incubation
[15] = test system: Burkholderia cepacia LMG 18941; test: Detection of β-alanine peptidase activity (example 11), colony coloration; conditions: between 24 and 48 h of incubation; strain LMG 18941
Pseudomonas putida = test: as above; conditions: between 24 and 48 h of incubation; Applicant's collection
Escherichia coli = test: as above; conditions: between 24 and 48 h of incubation; Applicant's collection
Pseudomonas aeruginosa [16] = test: as above; conditions: between 24 and 48 h of incubation
[17] = test system: Burkholderia Gladioli LGM 6880; test: as above; conditions: between 24 and 48 h of incubation; strain LGM 6880
Pseudomonas fluorescens = test: as above; conditions: between 24 and 48 h of incubation; Applicant's collection
[18] = first P. aeruginosa strain of table 2 (r6)
[19] = fourth P. aeruginosa strain of table 2 (r12)
[20] = second P. aeruginosa strain of table 2 (r8)
[21] = third P. aeruginosa strain of table 2 (r10)
[22] = strain of Applicant's collection (r9)
[23] = strain of Applicant's collection (r13)

CCCCCc1c2nc3ccc(NC(=O)[C@H](C)NC(=O)OC(C)(C)C)cc3oc-2cc(=O)c1Cl [Chlorinated L-alanyl compound, 7-N—(N′-t-butoxycarbonyl-L-alanyl)amino-2-chloro-1-pentylphenoxazin-3-one]
C [head as printed; cells hold growth signs] [1]: +/− | G [head as printed; cells hold colony color] [1]: I | C [head as printed; cells hold growth signs] [2]: + | G [head as printed; cells hold colony color] [2]: pink/purple | C [head as printed; cells hold growth signs] [3]: + | G [head as printed; cells hold colony color] [3]: I | C [head as printed; cells hold growth signs] [4]: + | G [head as printed; cells hold colony color] [4]: pink/purple | C [head as printed; cells hold growth signs] [5]: + | G [head as printed; cells hold colony color] [5]: pink/purple | C [head as printed; cells hold growth signs] [6]: + | G [head as printed; cells hold colony color] [6]: pink/purple | C [head as printed; cells hold growth signs] [7]: + | G [head as printed; cells hold colony color] [7]: pink/purple | C [head as printed; cells hold growth signs] (Salmonella hadar): + | G [head as printed; cells hold colony color] (Salmonella hadar): pinl/purple | C [head as printed; cells hold growth signs] [8]: + | G [head as printed; cells hold colony color] [8]: I

CCCCCc1c2nc3ccc(NC(=O)CCNC(=O)OC(C)(C)C)cc3oc-2cc(=O)c1Cl [Chlorinated beta-alanyl compound, 7-N—(N′-t-butoxycarbonyl-β-alanyl)amino-2-chloro-1-pentylphenoxazin-3-one]
coloration [9]: colorless | coloration (Pseudomonas aeruginosa [10]; [18]): purple | coloration (Pseudomonas aeruginosa [10]; [19]): purple | coloration (Pseudomonas aeruginosa [10]; [20]): pale purple | coloration (Pseudomonas aeruginosa [10]; [21]): pale purple | coloration [11]: colorless | coloration [12]: yellow | coloration [13]: yellow | coloration [14]: colorless | coloration (Pseudomonas maltophilia): colorless | coloration (Ralstonia basilensis): colorless | coloration (Ralstonia taiwanensis): colorless

CCCCCc1cc(=O)cc2oc3cc(NC(=O)[C@H](C)NC(=O)OC(C)(C)C)ccc3nc1-2 [Nonchlorinated L-alanyl compound, 7-N—(N″-t-butoxycarbonyl-L-alanyl)amino-1-pentylphenoxazin-3-one]
C [head as printed; cells hold growth signs] [1]: − | G [head as printed; cells hold colony color] [1]: I | C [head as printed; cells hold growth signs] [2]: + | G [head as printed; cells hold colony color] [2]: purple | C [head as printed; cells hold growth signs] [3]: − | G [head as printed; cells hold colony color] [3]: I | C [head as printed; cells hold growth signs] [4]: + | G [head as printed; cells hold colony color] [4]: purple | C [head as printed; cells hold growth signs] [5]: + | G [head as printed; cells hold colony color] [5]: purple | C [head as printed; cells hold growth signs] [6]: + | G [head as printed; cells hold colony color] [6]: purple | C [head as printed; cells hold growth signs] [7]: + | G [head as printed; cells hold colony color] [7]: purple | C [head as printed; cells hold growth signs] (Salmonella hadar): + | G [head as printed; cells hold colony color] (Salmonella hadar): purple | C [head as printed; cells hold growth signs] [8]: − | G [head as printed; cells hold colony color] [8]: I

CCCCCc1cc(=O)cc2oc3cc(NC(=O)CCNC(=O)OC(C)(C)C)ccc3nc1-2 [Nonchlorinated beta-alanyl compound, 7-N—(N′-t-butoxycarbonyl-β-alanyl)amino-1-pentylphenoxazin-3-one]
coloration [9]: colorless | coloration (Pseudomonas aeruginosa [10]; [18]): purple | coloration (Pseudomonas aeruginosa [10]; [19]): purple | coloration (Pseudomonas aeruginosa [10]; [20]): purple | coloration (Pseudomonas aeruginosa [10]; [21]): purple | coloration [11]: colorless | coloration [12]: yellow | coloration [13]: yellow | coloration [14]: colorless | coloration (Pseudomonas maltophilia): colorless | coloration (Ralstonia basilensis): colorless | coloration (Ralstonia taiwanensis): colorless

Cc1c2nc3ccc(NC(=O)CCN)cc3oc-2cc(=O)c1C.O=C(O)C(F)(F)F [b-ala-DMP, 7-N-(β-Alanyl)amino-1,2-dimethylphenoxazin-3-one trifluoroacetate salt]
coloration [15]: pale pink | coloration (Pseudomonas putida): colorless | coloration (Escherichia coli): orange | coloration (Pseudomonas aeruginosa [16]; strain ATCC 9027): deep pink | coloration (Pseudomonas aeruginosa [16]; strain ATCC 10145): deep pink | coloration (Pseudomonas aeruginosa [16]; strain ATCC 27853): pink | coloration (Pseudomonas aeruginosa [16]; [22]): deep pink | coloration (Pseudomonas aeruginosa [16]; [23]): colorless | coloration [17]: colorless | coloration (Pseudomonas fluorescens): colorless

COC(=O)c1c2oc3cc(NC(=O)CCNC(=O)OC(C)(C)C)ccc3nc-2c(C)c(Cl)c1=O [b-ala-MCMP, methyl 7-N—(N′-t-butoxycarbonyl-β-alanyl)amino-1-methyl-2-chlorophenoxazin-3-one-4-carboxylate]
coloration [15]: colorless | coloration (Pseudomonas putida): colorless | coloration (Escherichia coli): colorless | coloration (Pseudomonas aeruginosa [16]; strain ATCC 9027): pink- | coloration (Pseudomonas aeruginosa [16]; strain ATCC 10145): violet | coloration (Pseudomonas aeruginosa [16]; strain ATCC 27853): violet | coloration (Pseudomonas aeruginosa [16]; [22]): violet | coloration (Pseudomonas aeruginosa [16]; [23]): colorless | coloration [17]: colorless | coloration (Pseudomonas fluorescens): colorless

Cc1c2nc3ccc(NC(=O)CCN)cc3oc-2c(C)c(=O)c1C.O=C(O)C(F)(F)F [b-ala-TMP, 7-N-(β-Alanyl)amino-1,2,4-trimethylphenoxazin-3-one trifluoroacetate salt]
coloration [15]: pale pink | coloration (Pseudomonas putida): colorless | coloration (Escherichia coli): orange | coloration (Pseudomonas aeruginosa [16]; strain ATCC 9027): pink | coloration (Pseudomonas aeruginosa [16]; strain ATCC 10145): orangy- | coloration (Pseudomonas aeruginosa [16]; strain ATCC 27853): pink | coloration (Pseudomonas aeruginosa [16]; [22]): orangy- | coloration (Pseudomonas aeruginosa [16]; [23]): colorless | coloration [17]: colorless | coloration (Pseudomonas fluorescens): colorless
